In patent US7875596B2, “Use of dermatan sulfates and/or desulfated heparins to treat or prevent heparinoid-induced autoimmune responses” (Celsus Biopharmaceuticals, Inc., priority 2004, dated 2011):

Tests used:
[1] = biological target: T1, purified α-thrombin in the presence of purified human HCII (Homo sapiens, UniProt P05546); assay: HCII/anti-IIa activity (plasma-free chromogenic anti-IIa assay with heparin cofactor II); format: biochemical
T1 construct: Performed in a plasma-free system with purified α-thrombin; purchased Enzyme Research Laboratories, South Bend Ind; (α-thrombin, Lot No. HT2450PRA)
T1 sequence (P05546 20-499): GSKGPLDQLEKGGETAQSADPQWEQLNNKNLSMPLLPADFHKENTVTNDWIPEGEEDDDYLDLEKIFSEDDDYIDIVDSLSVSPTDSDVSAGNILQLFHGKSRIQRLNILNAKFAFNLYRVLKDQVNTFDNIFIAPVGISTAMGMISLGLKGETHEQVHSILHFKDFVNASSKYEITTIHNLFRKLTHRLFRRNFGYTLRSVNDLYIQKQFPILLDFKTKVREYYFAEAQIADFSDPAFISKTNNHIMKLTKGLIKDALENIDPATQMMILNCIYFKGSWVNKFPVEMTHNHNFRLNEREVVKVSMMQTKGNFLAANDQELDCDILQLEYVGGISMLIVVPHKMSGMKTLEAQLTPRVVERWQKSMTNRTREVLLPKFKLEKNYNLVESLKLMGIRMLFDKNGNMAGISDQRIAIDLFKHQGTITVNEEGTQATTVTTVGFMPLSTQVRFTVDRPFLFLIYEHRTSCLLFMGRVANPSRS
Description: For the purposes of the present invention, the terms “heparin cofactor II (HCII)-dependent anti-IIa activity,” “heparin cofactor II activity” and “HCII activity” refer interchangeably to the thrombin inhibitory potency of a sulfated mucopolysaccharide measured in the presence of purified human heparin cofactor II.
The chemical, physical and physiological properties of the dermatan sulfates, including the LMWDS embodiments, of this invention can be determined by the following methods: • a. Molecular weight. By gel permeation chromatography according to the method of and as defined by van Dedem et al., “Determinations of the Molecular Mass of Low Molecular Mass (LMM) Heparin,” Pharmeuropa (1991) 3:202-225 (herein incorporated by reference), using the 1st International Reference Standard for Low Molecular Weight Heparin (90/868) as the calibrant. Average molecular weights. […] The % sulfur is determined from the weight of barium sulfate. • c. […] Measurements can be performed manually or on an ACL 300 Plus Analyzer (Instrumentation Laboratory, Lexington Mass.) and anti-factor IIa activity calculated based on the USP Heparin Reference Standard K-5 (U.S. Pharmacopeial Convention, Inc., Rockville Md.). • e. […] Quantified by the PF4 ENHANCED® ELISA kit (Cat. No. X-HAT 45) according to the manufacturer's instructions (GTI, Waukesha Wis.).

[2] = Heparin assay (USP heparin potency)
Description: The chemical, physical and physiological properties of the dermatan sulfates, including the LMWDS embodiments, of this invention can be determined by the following methods: • a. Molecular weight. By gel permeation chromatography according to the method of and as defined by van Dedem et al., “Determinations of the Molecular Mass of Low Molecular Mass (LMM) Heparin,” Pharmeuropa (1991) 3:202-225 (herein incorporated by reference), using the 1st International Reference Standard for Low Molecular Weight Heparin (90/868) as the calibrant. Average molecular weights. By viscometric methods as described by Liberti et al., “Physiochemical Studies of Fractionated Bovine Heparin II: Viscosity as a Function of Ionic Strength,” Arch. Biochem. Biophys. […] The % sulfur is determined from the weight of barium sulfate. • c. […] Measurements can be performed manually or on an ACL 300 Plus Analyzer (Instrumentation Laboratory, Lexington Mass.) and anti-factor IIa activity calculated based on the USP Heparin Reference Standard K-5 (U.S. Pharmacopeial Convention, Inc., Rockville Md.). • e. […] Quantified by the PF4 ENHANCED® ELISA kit (Cat. No. X-HAT 45) according to the manufacturer's instructions (GTI, Waukesha Wis.).
The chemical, physical and physiological properties of the O-desulfated heparins of this invention can be determined by the following methods: • a. […]

HCII/anti-IIa activity [1]: less than 15 u/mg
Substance: dermatan sulfate
heparin assay [2]: < 8 u/mg
